Results taken from patent US20160375006A1, “USES OF PARALOG-SELECTIVE INHIBITORS OF GSK3 KINASES” (priority 2012, published 2016).

Assays:
NEK2 = NEK2 (Homo sapiens, UniProt P51955)
Protocol: (§1) This was completed utilizing one of two assays depending on the kinase being examined.
(§2) A solution of IMAP binding reagent (IMAP Screening Express kit; Molecular Devices) (60 μL) was added to each well and incubated for 30 minutes.
(§3) A solution of termination buffer (QuickScout Screening assist MSA; Carna Biosciences) (60 μL) was added to each well. The entire reaction mixture was then applied to a LabChip3000 system (Caliper Life Science) and the product and substrate peptide peaks were separated and quantified.
(§4) The assay utilized was identical to that of the single point inhibitory activity determination (MSA) but run in dose response. […] A solution of termination buffer (QuickScout Screening assist MSA; Carna Biosciences) (60 μL) was added to each well. The entire reaction mixture was then applied to a LabChip3000 system (Caliper Life Science) and the product and substrate peptide peaks were separated and quantified.

SPHK1 = SPHK1 (Homo sapiens, UniProt Q9NYA1)
Protocol: as §1, §2, §3, §4

PAK1 = PAK1 (Homo sapiens, UniProt Q13153)
Protocol: as §2, §3, §4

TNIK = TNIK (Homo sapiens, UniProt Q9UKE5)
Protocol: as §1, §2, §3, §4

RET(M918T) = RET(M918T) (Homo sapiens, UniProt P07949, M918T)
Protocol: as §1, §2, §3, §4

RAF1_Cascade = RAF1_Cascade (Homo sapiens, UniProt P04049)
Protocol: as §1, §2, §3

AMPKα1/β1/γ1 = AMPKα1/β1/γ1 (Homo sapiens, UniProt Q13131)
Description: as §1
(§5) The assay utilized was identical to that of the single point inhibitory activity determination (MSA) but run in dose response.

JNK1 = JNK1 (Homo sapiens, UniProt P45983)
Protocol: as §1, §2, §3, §4

RSK4 = RSK4 (Homo sapiens, UniProt Q9UK32)
Protocol: as §1, §2, §3

CDC2/CycB1 = CDC2/CycB1 (Homo sapiens, UniProt P06493)
Protocol: as §1, §2, §3, §4

TNK1 = TNK1 (Homo sapiens, UniProt Q13470)
Description: as §1, §5

MAP2K4_Cascade = MAP2K4_Cascade (Homo sapiens, UniProt P45985)
Protocol: as §1, §2, §3, §4

AKT2 = AKT2 (Homo sapiens, UniProt P31751)
Protocol: as §1, §2, §3, §4

BRSK2 = BRSK2 (Homo sapiens, UniProt Q8IWQ3)
Protocol: as §1, §2, §3, §4

LYNb = LYNb (Homo sapiens, UniProt P07948)
Protocol: as §1, §2, §3, §4

HIPK3 = HIPK3 (Homo sapiens, UniProt Q9H422)
Protocol: as §1, §2, §3, §4

TSSK1 = TSSK1 (Homo sapiens, UniProt Q9BXA7)
Protocol: as §1, §2, §3, §4

INSR = INSR (Homo sapiens, UniProt P06213)
NDR2 = NDR2 (Homo sapiens, UniProt Q9Y2H1)
Protocol: as §1, §2, §3, §4

MARK2 = MARK2 (Homo sapiens, UniProt Q7KZI7)
Protocol: as §1, §2, §3, §4

CK1γ2 = CK1γ2 (Homo sapiens, UniProt P78368)
Protocol: as §1, §2, §3, §4

EPHA7 = EPHA7 (Homo sapiens, UniProt Q15375)
Protocol: as §1, §2, §3, §4

PDHK4 = PDHK4 (Homo sapiens, UniProt Q16654)
Protocol: as §1, §2, §3, §4

EPHB3 = EPHB3 (Homo sapiens, UniProt P54753)
Protocol: as §1, §2, §3, §4

RET(S891A) = RET(S891A) (Homo sapiens, UniProt P07949, S891A)
Protocol: as §1, §2, §3, §4

LYNa = LYNa (Homo sapiens, UniProt P07948)
Protocol: as §1, §2, §3

PAK4 = PAK4 (Homo sapiens, UniProt O96013)
Protocol: as §1, §2, §3

TSSK3 = TSSK3 (Homo sapiens, UniProt Q96PN8)
Protocol: as §1, §2, §3, §4

SIK = SIK (Homo sapiens, UniProt P57059)
Protocol: as §1, §2, §3, §4

LCK = LCK (Homo sapiens, UniProt P06239)
Protocol: as §1, §2, §3, §4

JAK1 = JAK1 (Homo sapiens, UniProt P23458)
Protocol: as §1, §2, §3, §4

MAP2K3_Cascade = MAP2K3_Cascade (Homo sapiens, UniProt P46734)
Protocol: as §1, §2, §3, §4

EPHA4 = EPHA4 (Homo sapiens, UniProt P54764)
Protocol: as §1, §2, §3, §4

EML4-ALK = EML4-ALK (Homo sapiens, UniProt Q9UM73)
Protocol: as §1, §2, §3, §4

BRAF_Cascade = BRAF_Cascade (Homo sapiens, UniProt P15056)
Protocol: as §1, §2, §3, §4

EGFR(d746-750/T790M) = EGFR(d746-750/T790M) (Homo sapiens, UniProt P00533, DEL746-750/T790M)
Protocol: as §1, §2, §3, §4

MRCKβ = MRCKβ (Homo sapiens, UniProt Q9Y5S2)
Protocol: as §1, §2, §3, §4

p38β = p38β (Homo sapiens, UniProt Q15759)
Protocol: as §1, §2, §3, §4

AurB = AurB (Homo sapiens, UniProt Q96GD4)
Protocol: as §2, §3, §4

CK2α2/β = CK2α2/β (Homo sapiens, UniProt P19784)
Protocol: as §1, §2, §3, §4

Chain of EML4-ALK (Q9UM73 with tags, fused parts or gaps): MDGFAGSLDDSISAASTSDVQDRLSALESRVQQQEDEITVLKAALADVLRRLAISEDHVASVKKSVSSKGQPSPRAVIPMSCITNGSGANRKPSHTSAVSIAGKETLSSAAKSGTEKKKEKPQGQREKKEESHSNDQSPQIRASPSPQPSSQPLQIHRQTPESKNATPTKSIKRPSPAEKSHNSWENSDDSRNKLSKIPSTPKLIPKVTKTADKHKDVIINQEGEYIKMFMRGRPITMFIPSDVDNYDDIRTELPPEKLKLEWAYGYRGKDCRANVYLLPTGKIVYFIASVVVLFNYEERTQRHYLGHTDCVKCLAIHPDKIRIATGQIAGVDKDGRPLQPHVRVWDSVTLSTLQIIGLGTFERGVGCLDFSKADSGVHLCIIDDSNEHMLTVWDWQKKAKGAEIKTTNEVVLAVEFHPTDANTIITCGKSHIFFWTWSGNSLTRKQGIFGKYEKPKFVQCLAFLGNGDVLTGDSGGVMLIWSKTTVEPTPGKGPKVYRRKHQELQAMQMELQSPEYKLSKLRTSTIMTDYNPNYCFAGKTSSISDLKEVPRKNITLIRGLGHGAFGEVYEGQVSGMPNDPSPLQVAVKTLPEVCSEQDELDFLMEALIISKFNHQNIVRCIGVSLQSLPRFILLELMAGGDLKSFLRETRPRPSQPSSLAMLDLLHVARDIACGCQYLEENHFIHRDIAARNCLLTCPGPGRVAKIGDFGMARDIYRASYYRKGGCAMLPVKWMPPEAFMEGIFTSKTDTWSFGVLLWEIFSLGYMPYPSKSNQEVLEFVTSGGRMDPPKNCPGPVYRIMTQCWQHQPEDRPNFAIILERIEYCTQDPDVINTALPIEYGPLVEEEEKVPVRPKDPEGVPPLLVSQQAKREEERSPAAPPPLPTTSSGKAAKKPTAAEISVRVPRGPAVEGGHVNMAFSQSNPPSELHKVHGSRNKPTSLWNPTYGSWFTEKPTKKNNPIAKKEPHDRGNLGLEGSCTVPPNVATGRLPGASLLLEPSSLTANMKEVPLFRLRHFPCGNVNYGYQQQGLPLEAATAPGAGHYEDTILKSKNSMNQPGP
Chain of INSR (P06213 28-1382): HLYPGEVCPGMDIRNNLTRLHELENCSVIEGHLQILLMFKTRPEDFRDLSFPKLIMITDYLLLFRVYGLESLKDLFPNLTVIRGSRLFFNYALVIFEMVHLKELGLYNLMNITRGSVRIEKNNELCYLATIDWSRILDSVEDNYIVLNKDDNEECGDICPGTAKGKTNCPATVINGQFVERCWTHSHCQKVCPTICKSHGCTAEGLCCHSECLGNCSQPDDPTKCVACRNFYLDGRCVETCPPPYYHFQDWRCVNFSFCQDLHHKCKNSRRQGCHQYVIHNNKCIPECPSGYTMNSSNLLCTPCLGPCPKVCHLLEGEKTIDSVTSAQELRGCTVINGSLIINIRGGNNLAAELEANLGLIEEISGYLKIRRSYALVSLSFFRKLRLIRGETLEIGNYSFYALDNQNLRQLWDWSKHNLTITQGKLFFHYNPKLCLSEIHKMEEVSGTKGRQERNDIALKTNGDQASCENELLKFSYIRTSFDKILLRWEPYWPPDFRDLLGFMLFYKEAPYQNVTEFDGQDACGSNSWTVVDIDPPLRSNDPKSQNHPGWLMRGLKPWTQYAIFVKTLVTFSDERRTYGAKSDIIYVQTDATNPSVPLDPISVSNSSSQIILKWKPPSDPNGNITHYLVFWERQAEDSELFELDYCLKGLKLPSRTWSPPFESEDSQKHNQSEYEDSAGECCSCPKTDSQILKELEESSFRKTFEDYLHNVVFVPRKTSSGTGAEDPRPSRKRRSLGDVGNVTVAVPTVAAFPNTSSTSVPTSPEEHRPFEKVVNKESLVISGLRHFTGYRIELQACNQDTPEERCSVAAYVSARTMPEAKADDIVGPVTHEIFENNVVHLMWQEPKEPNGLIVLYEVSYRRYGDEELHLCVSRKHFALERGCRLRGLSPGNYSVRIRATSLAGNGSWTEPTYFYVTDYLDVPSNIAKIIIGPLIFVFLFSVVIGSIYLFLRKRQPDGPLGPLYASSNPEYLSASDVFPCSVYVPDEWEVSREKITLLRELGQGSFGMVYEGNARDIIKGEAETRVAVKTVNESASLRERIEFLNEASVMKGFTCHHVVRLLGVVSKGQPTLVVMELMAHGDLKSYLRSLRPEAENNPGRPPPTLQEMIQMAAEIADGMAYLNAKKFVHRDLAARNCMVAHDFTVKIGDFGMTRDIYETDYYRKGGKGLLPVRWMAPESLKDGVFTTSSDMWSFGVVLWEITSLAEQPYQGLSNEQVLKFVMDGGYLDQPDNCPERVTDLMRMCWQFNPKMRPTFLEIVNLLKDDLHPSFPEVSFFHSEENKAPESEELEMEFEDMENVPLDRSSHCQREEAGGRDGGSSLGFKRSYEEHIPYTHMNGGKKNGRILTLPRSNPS
Chain of PAK1 (Q13153 whole entry): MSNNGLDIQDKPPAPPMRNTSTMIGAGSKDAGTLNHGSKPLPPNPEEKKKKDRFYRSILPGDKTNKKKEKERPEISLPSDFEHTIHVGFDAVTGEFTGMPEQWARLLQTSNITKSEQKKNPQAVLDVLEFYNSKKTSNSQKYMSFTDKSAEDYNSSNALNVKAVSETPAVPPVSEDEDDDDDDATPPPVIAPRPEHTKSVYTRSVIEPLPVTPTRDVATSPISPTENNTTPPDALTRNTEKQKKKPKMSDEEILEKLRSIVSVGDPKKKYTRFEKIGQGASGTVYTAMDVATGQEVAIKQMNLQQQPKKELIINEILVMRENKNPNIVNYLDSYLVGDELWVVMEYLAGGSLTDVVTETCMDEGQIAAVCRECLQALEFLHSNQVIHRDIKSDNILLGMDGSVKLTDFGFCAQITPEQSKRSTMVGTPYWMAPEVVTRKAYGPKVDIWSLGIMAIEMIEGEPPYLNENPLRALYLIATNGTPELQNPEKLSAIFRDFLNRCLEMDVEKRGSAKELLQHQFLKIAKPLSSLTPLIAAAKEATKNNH
Chain of MAP2K3_Cascade (P46734 whole entry): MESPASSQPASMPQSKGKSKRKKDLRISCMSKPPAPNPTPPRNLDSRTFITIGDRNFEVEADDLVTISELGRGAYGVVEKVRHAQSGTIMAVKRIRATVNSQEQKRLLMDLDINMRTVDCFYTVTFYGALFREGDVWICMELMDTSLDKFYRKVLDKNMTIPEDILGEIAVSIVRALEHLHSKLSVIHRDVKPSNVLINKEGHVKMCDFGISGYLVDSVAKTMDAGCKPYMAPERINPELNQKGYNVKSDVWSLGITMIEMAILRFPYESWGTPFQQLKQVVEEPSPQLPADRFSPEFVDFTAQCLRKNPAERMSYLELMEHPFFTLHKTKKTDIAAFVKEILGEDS
Chain of BRAF_Cascade (P15056 whole entry): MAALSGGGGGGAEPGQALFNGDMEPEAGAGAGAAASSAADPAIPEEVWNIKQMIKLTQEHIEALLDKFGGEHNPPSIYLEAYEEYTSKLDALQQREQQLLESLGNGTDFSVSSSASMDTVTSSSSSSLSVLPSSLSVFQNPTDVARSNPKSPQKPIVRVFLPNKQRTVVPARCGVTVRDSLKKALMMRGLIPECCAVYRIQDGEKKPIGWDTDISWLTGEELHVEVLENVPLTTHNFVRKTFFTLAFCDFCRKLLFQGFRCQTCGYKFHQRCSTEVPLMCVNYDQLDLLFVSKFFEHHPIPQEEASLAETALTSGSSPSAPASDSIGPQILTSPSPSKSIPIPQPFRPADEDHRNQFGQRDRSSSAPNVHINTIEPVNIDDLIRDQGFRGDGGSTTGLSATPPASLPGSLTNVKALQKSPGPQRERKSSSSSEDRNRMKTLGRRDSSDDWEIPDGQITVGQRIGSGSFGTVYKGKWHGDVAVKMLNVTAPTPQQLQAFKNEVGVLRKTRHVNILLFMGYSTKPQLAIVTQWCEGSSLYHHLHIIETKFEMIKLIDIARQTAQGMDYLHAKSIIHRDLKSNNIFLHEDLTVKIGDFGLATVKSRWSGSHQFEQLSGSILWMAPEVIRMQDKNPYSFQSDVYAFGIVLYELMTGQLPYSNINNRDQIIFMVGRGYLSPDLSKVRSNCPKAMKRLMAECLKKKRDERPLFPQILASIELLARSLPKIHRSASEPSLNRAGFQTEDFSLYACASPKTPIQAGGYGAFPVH
Chain of TSSK3 (Q96PN8 whole entry): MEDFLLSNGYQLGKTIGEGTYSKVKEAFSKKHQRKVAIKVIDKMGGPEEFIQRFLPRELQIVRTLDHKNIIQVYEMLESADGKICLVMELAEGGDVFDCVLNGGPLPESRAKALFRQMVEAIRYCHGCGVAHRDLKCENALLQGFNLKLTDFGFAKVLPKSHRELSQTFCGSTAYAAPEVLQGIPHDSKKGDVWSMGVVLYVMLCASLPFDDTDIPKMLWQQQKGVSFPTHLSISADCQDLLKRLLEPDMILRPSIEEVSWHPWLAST
Chain of TNK1 (Q13470 whole entry): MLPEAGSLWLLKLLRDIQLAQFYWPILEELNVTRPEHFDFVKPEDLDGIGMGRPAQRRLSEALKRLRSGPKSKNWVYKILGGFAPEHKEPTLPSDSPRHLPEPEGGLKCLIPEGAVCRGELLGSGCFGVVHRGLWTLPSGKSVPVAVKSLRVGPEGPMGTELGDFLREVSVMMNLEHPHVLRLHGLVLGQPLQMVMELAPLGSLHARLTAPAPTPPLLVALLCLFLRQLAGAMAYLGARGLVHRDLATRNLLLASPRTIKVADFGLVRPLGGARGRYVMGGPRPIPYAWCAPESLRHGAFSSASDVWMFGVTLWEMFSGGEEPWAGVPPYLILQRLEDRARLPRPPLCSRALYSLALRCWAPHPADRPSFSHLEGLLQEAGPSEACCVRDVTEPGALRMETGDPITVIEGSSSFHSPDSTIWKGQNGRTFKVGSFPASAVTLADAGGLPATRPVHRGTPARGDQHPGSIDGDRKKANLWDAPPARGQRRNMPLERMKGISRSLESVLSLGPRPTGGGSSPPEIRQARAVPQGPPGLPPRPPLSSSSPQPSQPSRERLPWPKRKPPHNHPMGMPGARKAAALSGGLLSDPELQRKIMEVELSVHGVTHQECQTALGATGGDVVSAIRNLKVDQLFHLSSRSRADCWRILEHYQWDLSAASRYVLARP

CC[C@@]1(c2ccccc2)C2=C(CC(C)(C)CC2=O)Nc2n[nH]cc21 [BRD0705]
% Inhibition at 10 μM (NEK2): −4.5%
% Inhibition at 10 μM (SPHK1): −20.5%
% Inhibition at 10 μM (PAK1): −2.9%
% Inhibition at 10 μM (TNIK): 6.8%
% Inhibition at 10 μM (RET(M918T)): −2.9%
% Inhibition at 10 μM (RAF1_Cascade): 7.5%
% Inhibition at 10 μM (AMPKα1/β1/γ1): −4.1%
% Inhibition at 10 μM (JNK1): −3.9%
% Inhibition at 10 μM (RSK4): 1.1%
% Inhibition at 10 μM (CDC2/CycB1): 17.2%
% Inhibition at 10 μM (TNK1): −4.0%
% Inhibition at 10 μM (MAP2K4_Cascade): −3.0%
% Inhibition at 10 μM (AKT2): −4.7%
% Inhibition at 10 μM (BRSK2): 1.8%
% Inhibition at 10 μM (LYNb): 2.2%
% Inhibition at 10 μM (HIPK3): −7.6%
% Inhibition at 10 μM (TSSK1): −8.5%
% Inhibition at 10 μM (INSR): −1.4%
% Inhibition at 10 μM (NDR2): −9.9%
% Inhibition at 10 μM (MARK2): −6.2%
% Inhibition at 10 μM (CK1γ2): −11.8%
% Inhibition at 10 μM (EPHA7): −5.3%
% Inhibition at 10 μM (PDHK4): 11.0%
% Inhibition at 10 μM (EPHB3): −1.3%
% Inhibition at 10 μM (RET(S891A)): −3.1%
% Inhibition at 10 μM (LYNa): −0.4%
% Inhibition at 10 μM (PAK4): 33.8%
% Inhibition at 10 μM (TSSK3): 3.5%
% Inhibition at 10 μM (SIK): −4.8%
% Inhibition at 10 μM (LCK): 5.0%
% Inhibition at 10 μM (JAK1): −1.3%
% Inhibition at 10 μM (MAP2K3_Cascade): 6.7%
% Inhibition at 10 μM (EPHA4): 4.0%
% Inhibition at 10 μM (EML4-ALK): 3.4%
% Inhibition at 10 μM (BRAF_Cascade): 7.8%
% Inhibition at 10 μM (EGFR(d746-750/T790M)): −3.5%
% Inhibition at 10 μM (MRCKβ): −9.1%
% Inhibition at 10 μM (p38β): −2.7%
% Inhibition at 10 μM (AurB): −2.8%
% Inhibition at 10 μM (CK2α2/β): −7.0%

CC(C)(C)Cc1[nH]nc2c1[C@](C)(c1ccccc1)C1=C(CC(C)(C)CC1=O)N2 [BRD3731]
% Inhibition 10 μM (NEK2; 10 μM): −2.1%
% Inhibition 10 μM (SPHK1; 10 μM): 3.4%
% Inhibition 10 μM (PAK1; 10 μM): −18.6%
% Inhibition 10 μM (TNIK; 10 μM): −1.2%
% Inhibition 10 μM (RET(M918T); 10 μM): −2.2%
% Inhibition 10 μM (RAF1_Cascade; 10 μM): −6.6%
% Inhibition 10 μM (AMPKα1/β1/γ1; 10 μM): 11.2%
% Inhibition 10 μM (JNK1; 10 μM): −6.0%
% Inhibition 10 μM (RSK4; 10 μM): 33.9%
% Inhibition 10 μM (CDC2/CycB1; 10 μM): 27.8%
% Inhibition 10 μM (TNK1; 10 μM): −6.7%
% Inhibition 10 μM (MAP2K4_Cascade; 10 μM): 7.6%
% Inhibition 10 μM (AKT2; 10 μM): −8.4%
% Inhibition 10 μM (BRSK2; 10 μM): −2.9%
% Inhibition 10 μM (LYNb; 10 μM): 2.9%
% Inhibition 10 μM (HIPK3; 10 μM): 3.2%
% Inhibition 10 μM (TSSK1; 10 μM): −0.8%
% Inhibition 10 μM (INSR; 10 μM): −2.8%
% Inhibition 10 μM (NDR2; 10 μM): −3.2%
% Inhibition 10 μM (MARK2; 10 μM): 16.5%
% Inhibition 10 μM (CK1γ2; 10 μM): 3.6%
% Inhibition 10 μM (EPHA7; 10 μM): −3.0%
% Inhibition 10 μM (PDHK4; 10 μM): 24.2%
% Inhibition 10 μM (EPHB3; 10 μM): 0.1%
% Inhibition 10 μM (RET(S891A); 10 μM): −0.6%
% Inhibition 10 μM (LYNa; 10 μM): −0.3%
% Inhibition 10 μM (PAK4; 10 μM): 0.6%
% Inhibition 10 μM (TSSK3; 10 μM): 33.6%
% Inhibition 10 μM (SIK; 10 μM): 8.2%
% Inhibition 10 μM (LCK; 10 μM): 9.2%
% Inhibition 10 μM (JAK1; 10 μM): 3.7%
% Inhibition 10 μM (MAP2K3_Cascade; 10 μM): −8.8%
% Inhibition 10 μM (EPHA4; 10 μM): −2.7%
% Inhibition 10 μM (EML4-ALK; 10 μM): −7.2%
% Inhibition 10 μM (BRAF_Cascade; 10 μM): 8.9%
% Inhibition 10 μM (EGFR(d746-750/T790M); 10 μM): 3.7%
% Inhibition 10 μM (MRCKβ; 10 μM): −0.7%
% Inhibition 10 μM (p38β; 10 μM): −0.2%
% Inhibition 10 μM (AurB; 10 μM): −2.3%
% Inhibition 10 μM (CK2α2/β; 10 μM): −2.3%
